Experimental data reported in US20220053762A1, “HERBICIDAL COMPOSITIONS” (Bayer Aktiengesellschaft, priority 2018, published 2022).

Tested on: harmful plant species
Experiment: Specific trial examples: binary compositions applied by the post-emergence method, synergistic effect according to Colby (Tables 3.1-3.2)
Format: in vivo
Outline: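 Mono- and dicot weeds grown from seed or rhizome in sandy loam in greenhouse, sprayed post-emergence at three-leaf stage (three weeks after sowing) with formulated binary mixtures at various doses in 300–800 l/ha water. Efficacy rated at stated days after application; synergy judged versus summed single effects and Colby expected values.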

CONC(=O)C1=C[C@@H](NC(=O)[C@@]2(C)CC(c3cc(F)cc(F)c3)=NO2)CO1 [Compound A5, (5R)-3-(3,5-difluorophenyl)-N-[(3R)-5-(methoxycarbamoyl)-2,3-dihydrofuran-3-yl]-5-methyl-4H-isoxazole-5-carboxamide]
Herbicidal action 14 DAT against Lolium rigidum (resistant biotype) (1 g a.i./ha): 10% | Herbicidal action 14 DAT against Matricaria inodora (1 g a.i./ha): 30% | Herbicidal action 14 DAT against Viola tricolor (1 g a.i./ha): 30% | Herbicidal action 28 DAT against Centaurea cyanus (1 g a.i./ha): 10% | Herbicidal action 28 DAT against Galium aparine (1 g a.i./ha): 30% | Herbicidal action 28 DAT against Lamium purpureum L. (1 g a.i./ha): 40% | Herbicidal action 28 DAT against Matricaria inodora (1 g a.i./ha): 0% | Herbicidal action 28 DAT against Viola tricolor (1 g a.i./ha): 0% | Herbicidal action 14 DAT against Lolium rigidum (resistant biotype) (4 g a.i./ha): 20% | Herbicidal action 14 DAT against Matricaria inodora (4 g a.i./ha): 50% | Herbicidal action 14 DAT against Viola tricolor (4 g a.i./ha): 20% | Herbicidal action 28 DAT against Centaurea cyanus (4 g a.i./ha): 20% | Herbicidal action 28 DAT against Matricaria inodora (4 g a.i./ha): 10% | Herbicidal action 28 DAT against Phalaris minor (4 g a.i./ha): 30% | Herbicidal action 28 DAT against Viola tricolor (4 g a.i./ha): 0% | Herbicidal action 14 DAT against Alopecurus myosuroides (16 g a.i./ha): 70% | Herbicidal action 14 DAT against Lolium rigidum (16 g a.i./ha): 60% | Herbicidal action 14 DAT against Lolium rigidum (resistant biotype) (16 g a.i./ha): 30% | Herbicidal action 14 DAT against Matricaria inodora (16 g a.i./ha): 50% | Herbicidal action 14 DAT against Poa annua L. (16 g a.i./ha): 30% | Herbicidal action 28 DAT against Alopecurus myosuroides (16 g a.i./ha): 40% | Herbicidal action 28 DAT against Centaurea cyanus (16 g a.i./ha): 50% | Herbicidal action 28 DAT against Lamium purpureum L. (16 g a.i./ha): 60% | Herbicidal action 28 DAT against Matricaria inodora (16 g a.i./ha): 20% | Herbicidal action 28 DAT against Phalaris minor (16 g a.i./ha): 40% | Herbicidal action 28 DAT against Viola tricolor (16 g a.i./ha): 10% | Herbicidal action against Lolium rigidum ((Z119) 14 DAT, g a.i./ha: r682 16, r683 30): 60% | Herbicidal action against Phalaris minor ((Z119) 14 DAT, g a.i./ha: r709 4, r710 270): 70% | Herbicidal action against Poa annua L. ((Z119) 14 DAT, g a.i./ha: r729 4, r730 270): 20% | Herbicidal action against Alopecurus myosuroides ((Z119) 28 DAT, g a.i./ha: r642 16, r643 4, r644 90, r645 30, r646 270): 40% | Herbicidal action against Centaurea cyanus ((Z119) 28 DAT, g a.i./ha: r654 16, r655 30): 50% | Herbicidal action against Galium aparine ((Z119) 28 DAT, g a.i./ha: r662 1, r663 270): 30% | Herbicidal action against Lolium rigidum ((Z119) 28 DAT, g a.i./ha: r690 16, r691 30): 30% | Herbicidal action in [%] 28 DAT against Alopecurus myosuroides (post-emergence, single active compound (A5 series), g a.i./ha: r591 16, r592 4, r593 450, r594 150, r595 50): 40% | Herbicidal action in [%] 28 DAT against Bromus sterilis (post-emergence, single active compound (A5 series), g a.i./ha: r617 4, r618 450): 60% | Herbicidal action in [%] 14 DAT against Galium aparine (post-emergence, single active compound (A5 series), g a.i./ha: r649 1, r650 150): 50% | Herbicidal action in [%] 14 DAT against Lamium purpureum L. (post-emergence, single active compound (A5 series), g a.i./ha: r659 1, r660 450): 60% | Herbicidal action in [%] 28 DAT against Lamium purpureum L. (post-emergence, single active compound (A5 series), g a.i./ha: r669 1, r670 450): 40% | Herbicidal action in [%] 28 DAT against Phalaris minor (post-emergence, single active compound (A5 series), g a.i./ha: r700 16, r701 450, r702 150): 40% | Herbicidal action in [%] 14 DAT against Poa annua L. (post-emergence, single active compound (A5 series), g a.i./ha: r710 16, r711 450, r712 150, r713 50): 30% | Herbicidal action in [%] 28 DAT against Lolium rigidum (post-emergence, single active compound, g a.i./ha: r679 16, r680 150, r681 50): 30% | Herbicidal action in [%] 14 DAT against Lolium rigidum (resistant bio type) (post-emergence, single active compound, g a.i./ha: r689 16, r690 450, r691 150, r692 50): 30% | Herbicidal action in [%] 28 DAT against Poa annua L. (post-emergence, single active compound, g a.i./ha: r721 16, r722 450): 20%
